Measurements as given in PubChem BioAssay (NCI).
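Grown in 96-well plates, cells were treated for 48 hours with each compound at five concentrations. Insufficient inhibition: endpoint recorded as highest concentration tested. GI50 = concentration required for 50% inhibition of growth. Definition used: TGI = concentration required for complete inhibition of growth.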

These molecules were tested on CAKI-1 renal (assay: NCI tumour cell line growth inhibition, 48 h).

`O=C(CC1Sc2ccccc2NC1=O)Nc1ccccc1[N+](=O)[O-]` (centres undefined) and `O=C1OC(c2ccccc2)=N/C1=C\c1ccc([N+](=O)[O-])cc1` cannot be ordered by TGI: > 100 µM for the first, > 100 µM for the second.

Compared with `CCOC(=O)c1csc(NC(=O)CN2CCCC2)n1`, `COc1cc(/C=C2\CN(S(=O)(=O)c3ccc(C)cc3)C/C(=C\c3cc(CN4CCCC4)c(O)c(OC)c3)C2=O)cc(CN2CCCC2)c1O` is lower in TGI: > 100 µM for the first, 3.28 µM for the second.

`CC1NC(=O)C(C)C(c2ccccc2)N(N=O)C1c1ccccc1` (centres undefined) and `CON(C)C(=O)C(Cc1ccccc1)NC(=O)OCc1ccccc1` (centres undefined) cannot be ordered by TGI: > 100 µM for the first, > 100 µM for the second.

Going from `CO[C@](C(=O)OC[C@H]1[C@@H](COC(C)=O)[C@@H]2O[C@H]1c1cc3c(cc12)OCO3)(c1ccccc1)C(F)(F)F` to `Cc1ccc(C(=O)OC(C(=O)O)C(OC(=O)c2ccc(C)cc2)C(=O)O)cc1` (centres undefined) (tested in a mixture with another compound), the TGI falls from > 100 µM to 21.2 µM.

Going from `O=C(O)Cc1ccc([N+](=O)[O-])cc1[N+](=O)[O-]` to `CCCCCCOc1ccc(/C=N/Nc2cc(C)nc3ccc(Cl)cc23)cc1`, the TGI falls from > 100 µM to 3.06 µM.

`COc1cc(/C=C2\CN(S(=O)(=O)c3ccc(C)cc3)C/C(=C\c3cc(CN4CCCC4)c(O)c(OC)c3)C2=O)cc(CN2CCCC2)c1O` and `CCCCCCOc1ccc(/C=N/Nc2cc(C)nc3ccc(Cl)cc23)cc1` are within 1.5-fold of each other in GI50: 1.76 µM for the first, 1.65 µM for the second.

The molecules below were run on EKVX NSCLC (assay: NCI tumour cell line growth inhibition, 48 h).

`O=C(CC1Sc2ccccc2NC1=O)Nc1ccccc1[N+](=O)[O-]` (centres undefined) and `O=C1OC(c2ccccc2)=N/C1=C\c1ccc([N+](=O)[O-])cc1` cannot be ordered by TGI: > 100 µM for the first, > 100 µM for the second.

`CCOC(=O)c1csc(NC(=O)CN2CCCC2)n1` and `CON(C)C(=O)C(Cc1ccccc1)NC(=O)OCc1ccccc1` (centres undefined) cannot be ordered by TGI: > 100 µM for the first, > 100 µM for the second.

`CCn1cnc2c(=S)nc(N)[nH]c21` and `CC1NC(=O)C(C)C(c2ccccc2)N(N=O)C1c1ccccc1` (centres undefined) cannot be ordered by TGI: > 100 µM for the first, > 100 µM for the second.

Going from `CO[C@](C(=O)OC[C@H]1[C@@H](COC(C)=O)[C@@H]2O[C@H]1c1cc3c(cc12)OCO3)(c1ccccc1)C(F)(F)F` to `Cc1ccc(C(=O)OC(C(=O)O)C(OC(=O)c2ccc(C)cc2)C(=O)O)cc1` (centres undefined) (tested in a mixture with another compound), the TGI falls from 98.8 µM to 26.6 µM (3.7-fold).

With `O=C(O)Cc1ccc([N+](=O)[O-])cc1[N+](=O)[O-]` the TGI was > 100 µM.

The molecules below were run on HCT-15 colon (assay: NCI tumour cell line growth inhibition, 48 h).

`O=C(CC1Sc2ccccc2NC1=O)Nc1ccccc1[N+](=O)[O-]` (centres undefined) and `O=C1OC(c2ccccc2)=N/C1=C\c1ccc([N+](=O)[O-])cc1` cannot be ordered by TGI: > 100 µM for the first, > 100 µM for the second.

Compared with `CCOC(=O)c1csc(NC(=O)CN2CCCC2)n1`, `COc1cc(/C=C2\CN(S(=O)(=O)c3ccc(C)cc3)C/C(=C\c3cc(CN4CCCC4)c(O)c(OC)c3)C2=O)cc(CN2CCCC2)c1O` is lower in TGI: > 100 µM for the first, 5.83 µM for the second.

First: CCn1cnc2c(=S)nc(N)[nH]c21
Second: CCCCCCOc1ccc(/C=N/Nc2cc(C)nc3ccc(Cl)cc23)cc1
The TGI of the first is higher: > 100 µM for the first, 2.55 µM for the second.

`CC1NC(=O)C(C)C(c2ccccc2)N(N=O)C1c1ccccc1` (centres undefined) and `CON(C)C(=O)C(Cc1ccccc1)NC(=O)OCc1ccccc1` (centres undefined) cannot be ordered by TGI: > 100 µM for the first, > 100 µM for the second.

Compared with `CO[C@](C(=O)OC[C@H]1[C@@H](COC(C)=O)[C@@H]2O[C@H]1c1cc3c(cc12)OCO3)(c1ccccc1)C(F)(F)F`, `Cc1ccc(C(=O)OC(C(=O)O)C(OC(=O)c2ccc(C)cc2)C(=O)O)cc1` (centres undefined) (tested in a mixture with another compound) is lower in TGI: > 100 µM for the first, 17.6 µM for the second.

`O=C(O)Cc1ccc([N+](=O)[O-])cc1[N+](=O)[O-]` was tested, and the TGI was > 100 µM.

First: COc1cc(/C=C2\CN(S(=O)(=O)c3ccc(C)cc3)C/C(=C\c3cc(CN4CCCC4)c(O)c(OC)c3)C2=O)cc(CN2CCCC2)c1O
Second: CCCCCCOc1ccc(/C=N/Nc2cc(C)nc3ccc(Cl)cc23)cc1
The GI50 of the first is 1.5-fold higher: 1.94 µM for the first, 1.27 µM for the second.

These molecules were tested on HOP-62 NSCLC (assay: NCI tumour cell line growth inhibition, 48 h).

`O=C(CC1Sc2ccccc2NC1=O)Nc1ccccc1[N+](=O)[O-]` (centres undefined) and `O=C1OC(c2ccccc2)=N/C1=C\c1ccc([N+](=O)[O-])cc1` cannot be ordered by TGI: > 100 µM for the first, > 100 µM for the second.

`CCOC(=O)c1csc(NC(=O)CN2CCCC2)n1` and `CON(C)C(=O)C(Cc1ccccc1)NC(=O)OCc1ccccc1` (centres undefined) cannot be ordered by TGI: > 100 µM for the first, > 100 µM for the second.

Compared with `CCn1cnc2c(=S)nc(N)[nH]c21`, `CCCCCCOc1ccc(/C=N/Nc2cc(C)nc3ccc(Cl)cc23)cc1` is lower in TGI: > 100 µM for the first, 3.08 µM for the second.

Going from `CC1NC(=O)C(C)C(c2ccccc2)N(N=O)C1c1ccccc1` (centres undefined) to `CO[C@](C(=O)OC[C@H]1[C@@H](COC(C)=O)[C@@H]2O[C@H]1c1cc3c(cc12)OCO3)(c1ccccc1)C(F)(F)F`, the TGI falls from > 100 µM to 73.6 µM.

Compared with `O=C(O)Cc1ccc([N+](=O)[O-])cc1[N+](=O)[O-]`, `Cc1ccc(C(=O)OC(C(=O)O)C(OC(=O)c2ccc(C)cc2)C(=O)O)cc1` (centres undefined) (tested in a mixture with another compound) is lower in TGI: > 100 µM for the first, 29.2 µM for the second.

Molecule `CCCCCCOc1ccc(/C=N/Nc2cc(C)nc3ccc(Cl)cc23)cc1` has a GI50 of 1.55 µM.

These molecules were tested on HOP-92 NSCLC (assay: NCI tumour cell line growth inhibition, 48 h).

Going from `O=C(CC1Sc2ccccc2NC1=O)Nc1ccccc1[N+](=O)[O-]` (centres undefined) to `O=C1OC(c2ccccc2)=N/C1=C\c1ccc([N+](=O)[O-])cc1`, the TGI falls from > 100 µM to 76.2 µM.

First: CCOC(=O)c1csc(NC(=O)CN2CCCC2)n1
Second: COc1cc(/C=C2\CN(S(=O)(=O)c3ccc(C)cc3)C/C(=C\c3cc(CN4CCCC4)c(O)c(OC)c3)C2=O)cc(CN2CCCC2)c1O
The TGI of the first is higher: > 100 µM for the first, 3.83 µM for the second.

`CC1NC(=O)C(C)C(c2ccccc2)N(N=O)C1c1ccccc1` (centres undefined) and `CON(C)C(=O)C(Cc1ccccc1)NC(=O)OCc1ccccc1` (centres undefined) cannot be ordered by TGI: > 100 µM for the first, > 100 µM for the second.

First: CO[C@](C(=O)OC[C@H]1[C@@H](COC(C)=O)[C@@H]2O[C@H]1c1cc3c(cc12)OCO3)(c1ccccc1)C(F)(F)F
Second: Cc1ccc(C(=O)OC(C(=O)O)C(OC(=O)c2ccc(C)cc2)C(=O)O)cc1 (centres undefined) (tested in a mixture with another compound)
The TGI of the first is higher: > 100 µM for the first, 11.8 µM for the second.

For `CCCCCCOc1ccc(/C=N/Nc2cc(C)nc3ccc(Cl)cc23)cc1`, the TGI was 3.07 µM.

`COc1cc(/C=C2\CN(S(=O)(=O)c3ccc(C)cc3)C/C(=C\c3cc(CN4CCCC4)c(O)c(OC)c3)C2=O)cc(CN2CCCC2)c1O` and `CCCCCCOc1ccc(/C=N/Nc2cc(C)nc3ccc(Cl)cc23)cc1` are within 1.5-fold of each other in GI50: 1.15 µM for the first, 1.42 µM for the second.

These molecules were tested on NCI-H226 lung (assay: NCI tumour cell line growth inhibition, 48 h).

`O=C(CC1Sc2ccccc2NC1=O)Nc1ccccc1[N+](=O)[O-]` (centres undefined) and `CCOC(=O)c1csc(NC(=O)CN2CCCC2)n1` cannot be ordered by TGI: > 100 µM for the first, > 100 µM for the second.

For `CCn1cnc2c(=S)nc(N)[nH]c21`, the TGI was > 100 µM.
